Patent US10624871B2, “Bismuth(III) compounds and methods thereof” (priority 2016, dated 2020)

Key:
NDM-1 [1] = biological target: T1, NDM-1 (Klebsiella pneumoniae, UniProt C7C422); assay: IC50 enzyme inhibition assay, MER hydrolysis; assay type: biochemical; details: Zn2-NDM-1 50 nM, 1 h preincubation at 25° C., 100 μM MER
Description: (§1) […]. The initial rate were extracted and calculated from each reaction curves.

VIM-2 = VIM-2 (Escherichia coli, UniProt Q5U7L7); assay: IC50 enzyme inhibition assay, MER hydrolysis; assay type: biochemical; details: Zn2-VIM-2, 1 h preincubation at 25° C., 100 μM MER
Description: as §1

NDM-1 [2] = biological target: T1, NDM-1; assay: Hydrolysis rates of meropenem by native NDM-1 and Bi-bound NDM-1; assay type: biochemical; parameters: unit not given here; details: MER hydrolysis by Bi-bound NDM-1
E. coli (NDM-1+) [3] = assay: Microdilution MIC and MBC assay, checkerboard FICI; assay type: cell-based; details: Bi(III) compound at 32 μg mL^−1, E. coli (NDM-1+)
E. coli (NDM-1+) [4] = assay: Time kill assay; assay type: cell-based; details: combination 16 μg mL^−1 MER and 32 μg mL−1 CBS, endpoint 24 hrs
Experimental: Time kill assay was used to further explore the synergy between MER and Bi(III) compounds which were represented by CBS herein. In a typical assay, the concentrations of the compounds used in this test represent as follows: 16 μg mL^−1 MER, 32 μg mL−1 CBS. Bacteria were cultured for overnight and diluted 1:250 into LB broth at 37° C. for 3 hrs to reach log phase. The initial bacterial concentration was adjusted to ˜10^7 CFU mL^−1 according to standard curve. Tested compounds either alone or in combination was added to 20 mL of freshly prepared bacterial solution in a 50 ml tube, and incubate at 37° C. LB broth with no compounds served as a positive control. Aliquots of […] suspension were withdrawn after different time intervals (0, 1, 2, 4, 6, 8, and 24 hrs). Bacterial concentrations were estimated from colony counts by serial dilution in phosphate-buffered saline (PBS) and plating on LB agar. All assays were triplicated and performed three times in different days. Data from three independent experiments were averaged and plotted as log10 CFU mL^−1 versus time (h) for each time point over 24 hrs as shown in FIG. 12.

E. coli (NDM-1+) [5] = assay: In vitro cell infection assay in MDCK cells; assay type: cell-based
Experimental: To further evaluate the antimicrobial efficacy of CBS in combination with MER, we exploited the in vitro bacterial infection model in mammalian cell. Typically, MDCK cells were cultured in minimum essential Media (MEM) supplemented with fetal bovine serum (FBS, 10%) and grown at 37° C. in the 5% CO2 humidified atmosphere for three days. The MDCK cells were then washed three times with phosphate buffer saline (PBS) solution, liberated with trypsin-EDTA (0.25%) and re-suspended by culture medium. About 500 μL of re-suspended cells were seeded in 24-well plates and incubated as described above for 48 hrs to ensure confluency, resulting in about 1.0×10^5 cells per well by typan blue assay. The freshly grown logarithmic E. coli (NDM-1^+) bacterial cells were washed with PBS for three times and re-suspended in MEM/10% FBS. The density was adjusted to 2×10^7 CFU mL^−1. Then 500 μL of bacterial suspension was added to each well and substituted for the previous MDCK culture medium. […]
For those cell-invaded bacteria experiments, the infected cells were incubated in culture medium supplemented with 100 μg mL^−1 ciprofloxacin for 1 h to remove extracellular bacteria. […] The assay was performed in triplicate, repeated three times and the results were expressed as average ±SD.

E. coli (NDM-1+) [6] = assay: Murine peritonitis infection model; assay type: in vivo, BALB/c mice; details: MER (5 mg kg^−1) co-administered with CBS (20 mg kg^−1), i.p., day 4 post infection
Experimental: FIG. 15 is a survival curve showing efficacies in a murine peritonitis infection model. BALB/c mice were infected by a lethal dose of E. coli clinical isolate (NDM-1) via i.p. injection and treated with one dose and 4 h post infection, followed by twice-daily treatment via i.p. injection. Five groups of mice were treated with MER (5 mg kg^−1), CBS (20 mg kg^−1), the combination of MER (5 mg kg^−1) and CBS (20 mg kg^−1), CBS (20 mg kg^−1, in the absence of bacteria) and PBS, respectively. P<0.001, Mantel-Cox test.
Briefly, an overnight culture of E. coli (NDM-1^+) was performed 1:250 dilution in 50 mL LB broth and re-grew to about OD of 0.3 in a 250-mL flask after 2.5 hrs shaking at 37° C., 250 rpm. The resulting bacterial pellets were collected and washed by PBS three times for further use. For bacterial infection, mice (female BALB/c strain, 6-8 weeks of age, 18-22 g of weight) were induced intraperitoneally (i.p.) with a dose of 10^5 CFU bacteria in a 400 μL aliquot of PBS supplemented with 2% mucin. 4 groups of mice were i.p. administered 4 hrs post-infection with a 100 μL aliquot of PBS, MER, CBS and a combination of MER and CBS, respectively. Body weights and mice survival were monitored for endpoint until day 4 post infection.

T1 sequence (C7C422 whole entry, looked up): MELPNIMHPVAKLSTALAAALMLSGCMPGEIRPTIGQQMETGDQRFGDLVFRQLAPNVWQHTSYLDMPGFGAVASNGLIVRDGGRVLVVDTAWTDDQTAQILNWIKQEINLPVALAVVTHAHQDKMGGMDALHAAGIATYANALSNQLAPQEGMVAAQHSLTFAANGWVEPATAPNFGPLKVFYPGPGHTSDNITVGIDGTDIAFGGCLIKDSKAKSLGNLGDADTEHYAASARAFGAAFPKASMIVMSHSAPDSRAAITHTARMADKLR

Compound: O=C([O-])CC([O-])(CC(=O)[O-])C(=O)[O-].O=C([O-])CC([O-])(CC(=O)[O-])C(=O)[O-].[Bi+3].[Bi+3].[K+] [Complex 10, colloidal bismuth subcitrate]
- IC50 (NDM-1 [1]): 5.83 ± 0.53 µM
- IC50 (VIM-2): 44.5 ± 3.94 µM
- Vmax (NDM-1 [2]): 0.26 ± 0.01
- MBC of MER with Bi(III) compound (E. coli (NDM-1+) [3]): 4 µg/mL
- MIC of MER with Bi(III) compound (E. coli (NDM-1+) [3]): 2 µg/mL
- lowering of bacteria density versus single components (E. coli (NDM-1+) [4]): more than 1000 fold
- lowering of intracellular bacterial density compared with mere MER, cell-invaded model (E. coli (NDM-1+) [5]; MER (2×MIC) and CBS): 9.22 fold
- bacterial load, cell-associated model (E. coli (NDM-1+) [5]; MER in the presence of CBS (32 μg mL^−1)): ≤ 10^4 CFU
- survival rate at the endpoint of experiment (E. coli (NDM-1+) [6]): 50%
